Experimental findings from patent US9090568B2, “Quinazolinediones and their use” (IMPACT Therapeutics, Inc., priority 2011, dated 2015) are described below.

pEC50, pIC50: −log10 of the molar value. Read-outs that look alike come from different tables or passages of the source.

In series [1] the target is T1, PARP-1 (Homo sapiens, UniProt P09874).
T1 construct: purchased Trevigen
Description: PARP-1 activity assay (HT Universal chemiluminescent PARP Assay Kit). It is filed as biochemical. Particulars: 0.5 unit/well PARP-1, 25° C., 45 minutes; read-out: PARP1 enzyme IC50. The method, then:
PARP-1 activity was determined using a HT Universal chemiluminescent PARP Assay Kit (Trevigen, Gaithersburg, Md., USA). The assay was to measure the incorporation of biotinylated poly(ADP-ribose) onto histone proteins catalyzed by PARP-1 upon activation with DNA. Experimental procedures were followed according to the instruction provided with the assay kit. In brief, PARP-1 (0.5 unit/well) was incubated with activated DNA and NAD^+ in reaction buffer in the presence or absence of test articles in histone-coated strip wells at 25° C. for 45 minutes. After incubation, the strip wells were incubated with Strep-HRP at 25° C. for 60 minutes after washes with PBS containing 0.1% Triton X-100. The chemiluminescence was measured with a Victor X5 2030 Multilabel Reader (Perkin Elmer) immediately after the addition of PeroxyGlow™ to the strip wells. IC50 value was calculated using median-effect method (Chou, T. C. (2006). Pharmacol. Rev. 58(3): 621-681).

The test system of series [2] is MDA-MB-436 cells. Description: Cell proliferation assay (MTS, 7 days). The class given is cell-based. Particulars: Homo sapiens; for pEC50: 168 h, MDA-MB-436 cells, 7 days, MTS, read-out: MDA-MB-436 cells EC50. The method, then:
Cell Proliferation Assay:
MDA-MB-436 cells were purchased from American Type Culture Collection (USA). Cells were maintained at 37° C. in a humidified atmosphere with 5% CO2. For proliferation test, MDA-MB-436 cells were seeded in 96-well plates at low density in RPMI-1640 medium supplemented with 10% FBS and incubated for 24 h at 37° C. in a humidified atmosphere with 5% CO2. Cells were further incubated in fresh medium in the presence or absence of the test articles at 37° C. for 7 days. The proliferation of cells was measured with a 3-(4,5-dimethylthiazol-2-yl)-5-(3-carboxymethoxyphenyl)-2-(4-sulfophenyl)-2H-tetrazolium (MTS) assay using a CellTiter 96® Aqueous Non-Radioactive Cell Proliferation kit (Promega). The absorbance at 490 nm (A490) was determined with a Victor X5 2030 Multilabel Reader (Perkin Elmer). IC50 value was calculated using median-effect method (Chou, T. C. (2006). Pharmacol. Rev. 58(3): 621-681).

A short description of series [3]: Pharmacokinetic assay, intravenous and oral administration. It is filed as in vivo, Sprague-Dawley rats. As to conditions: after oral administrations in rats; for half-life: Sprague-Dawley, rat, plasma, read-out: t½. The method, then:
The tested articles were given to Sprague-Dawley rats by intravenous and oral administration. Plasma samples were prepared from blood samples which were collected at various time points. The plasma concentrations of the tested articles were determined by specific LC-MS/MS analytical methods. Pharmacokinetic parameters were calculated with WinNonlin®.

By pIC50 is commonly meant the negative decadic logarithm of the IC50, by convention in mol/L. As a reminder, the pEC50 is the negative decadic logarithm of the EC50, by convention in mol/L. Broadly, the EC50 is the concentration needed to bring the measured effect to its halfway point.

T1 sequence (P09874 whole entry): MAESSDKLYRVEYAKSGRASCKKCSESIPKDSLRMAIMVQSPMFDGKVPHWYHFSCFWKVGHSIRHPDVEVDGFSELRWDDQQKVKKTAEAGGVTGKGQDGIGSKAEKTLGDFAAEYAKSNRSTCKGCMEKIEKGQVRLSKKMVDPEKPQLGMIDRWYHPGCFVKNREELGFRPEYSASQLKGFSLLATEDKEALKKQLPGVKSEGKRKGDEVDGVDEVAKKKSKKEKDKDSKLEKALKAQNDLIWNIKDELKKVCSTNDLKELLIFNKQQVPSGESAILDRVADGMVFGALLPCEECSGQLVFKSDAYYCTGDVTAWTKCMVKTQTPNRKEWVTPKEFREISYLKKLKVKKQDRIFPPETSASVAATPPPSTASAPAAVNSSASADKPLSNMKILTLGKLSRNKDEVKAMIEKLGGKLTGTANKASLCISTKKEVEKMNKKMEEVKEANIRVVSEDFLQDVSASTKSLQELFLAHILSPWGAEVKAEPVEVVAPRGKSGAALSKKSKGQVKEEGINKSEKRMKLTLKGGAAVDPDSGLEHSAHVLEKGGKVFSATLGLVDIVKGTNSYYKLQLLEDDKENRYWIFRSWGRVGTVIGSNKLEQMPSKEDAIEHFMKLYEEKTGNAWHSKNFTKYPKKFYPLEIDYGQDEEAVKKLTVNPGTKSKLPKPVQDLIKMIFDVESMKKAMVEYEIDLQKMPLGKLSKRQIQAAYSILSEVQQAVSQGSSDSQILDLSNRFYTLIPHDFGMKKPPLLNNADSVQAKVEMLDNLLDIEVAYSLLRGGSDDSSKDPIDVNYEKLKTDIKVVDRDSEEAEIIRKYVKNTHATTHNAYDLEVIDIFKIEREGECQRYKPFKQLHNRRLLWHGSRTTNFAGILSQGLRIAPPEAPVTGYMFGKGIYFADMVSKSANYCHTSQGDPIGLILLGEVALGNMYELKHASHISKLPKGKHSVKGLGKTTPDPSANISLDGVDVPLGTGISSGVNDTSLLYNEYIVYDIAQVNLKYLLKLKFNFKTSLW

For the molecule `CC1(C(=O)N2CCN(C(=O)c3cc(Cn4c(=O)[nH]c(=O)c5ccccc54)ccc3F)CC2)CCCN1` (stereo in doubt) [Example 40, (R)-1-(4-fluoro-3-(4-(2-methylpyrrolidine-2-carbonyl)piperazine-1-carbonyl)benzyl)quinazoline-2,4(1H,3H)-dione], the pIC50 in series [1] was 8.00 to 10.00. Also, in series [2], the pEC50 is < 8.00.
Turning to `O=C(c1cc(Cn2c(=O)[nH]c(=O)c3ccccc32)ccc1F)N1CCN(C(=O)C2CC2)CC1` [Example 1], the pIC50 in series [1] is 8.00 to 10.00. Further, in series [2] (MDA-MB-436, 168 h, read-out: MDA-MB-436 cells EC50 (μM)), the half-maximal effective concentration (EC50) is > 0.01 µM.
`O=C(c1cccc(Cn2c(=O)[nH]c(=O)c3ccccc32)c1)N1CCN(C(=O)C2CC2)CC1` [Example 2]: the pIC50 in series [1] was 8.00 to 10.00. In addition, the pEC50 in series [2] is 4.00 to 6.00.
The like results for `O=C(c1cc(Cn2c(=O)[nH]c(=O)c3ccccc32)ccc1Cl)N1CCN(C(=O)C2CC2)CC1` [Example 3] were, in that order, 8.00 to 10.00 and 4.00 to 6.00.
In the same order, the values of `O=C(c1cc(Cn2c(=O)[nH]c(=O)c3ccccc32)ccc1F)N1CCCCC1` [Example 4] are < 8.00 and 4.00 to 6.00.
In the same order, the values of `O=C(c1cc(Cn2c(=O)[nH]c(=O)c3ccccc32)ccc1F)N1CCC(OC(F)F)CC1` [Example 11] are 8.00 to 10.00 and 4.00 to 6.00.
`O=C(c1cc(Cn2c(=O)[nH]c(=O)c3ccccc32)ccc1F)N1CCC(Oc2ccccn2)CC1` [Example 12]: the pIC50 in series [1] is 8.00 to 10.00. Also, in series [2], the pEC50 is 8.00 to 10.00.
Regarding `O=C(c1cc(Cn2c(=O)[nH]c(=O)c3ccccc32)ccc1F)N1CCC(n2cc(Br)cn2)CC1` [Example 14], in series [1], the pIC50 is 8.00 to 10.00. In series [2], the pEC50 was < 8.00.
In the same order, the values of `O=C(c1cc(Cn2c(=O)[nH]c(=O)c3ccccc32)ccc1F)N1CCC(n2cccn2)CC1` [Example 15] are 8.00 to 10.00 and 4.00 to 6.00.
In the same order, the values of `O=C(c1cc(Cn2c(=O)[nH]c(=O)c3ccccc32)ccc1F)N1CCC(N2CCCC2)CC1` [Example 17] are 8.00 to 10.00 and < 8.00.
The like results for `COC(=O)C1CCN(C(=O)c2cc(Cn3c(=O)[nH]c(=O)c4ccccc43)ccc2F)CC1` [Example 18] were, in that order, 8.00 to 10.00 and 4.00 to 6.00.
With `CCNC(=O)OC1CCN(C(=O)c2cc(Cn3c(=O)[nH]c(=O)c4ccccc43)ccc2F)CC1` [Example 19], in series [1], the pIC50 was < 8.00. Also, the pEC50 in series [2] was 4.00 to 6.00.
Take `O=C(O)C1CCN(C(=O)c2cc(Cn3c(=O)[nH]c(=O)c4ccccc43)ccc2F)CC1` [Example 20]: in series [1], the pIC50 was < 8.00.
On to `O=C(NC1CC1)C1CCN(C(=O)c2cc(Cn3c(=O)[nH]c(=O)c4ccccc43)ccc2F)CC1` [Example 21], for which the pIC50 in series [1] is < 8.00. The pEC50 in series [2] was 4.00 to 6.00.
Take `O=C(c1cc(Cn2c(=O)[nH]c(=O)c3ccccc32)ccc1F)N1CCC(ON=C2CCc3ccccc32)CC1` [Example 22]: the pIC50 in series [1] was < 8.00.
For `O=C(c1cc(Cn2c(=O)[nH]c(=O)c3ccccc32)ccc1F)N1Cc2cccc(F)c2C1` [Example 24], in series [1], the pIC50 is 8.00 to 10.00. Further, the pEC50 in series [2] was < 8.00.
With `O=C(c1cc(Cn2c(=O)[nH]c(=O)c3ccccc32)ccc1F)N1Cc2cccnc2C1` [Example 25], in series [3], the half-life is > 2 h and the “bioavailability (in words)” value is recorded as “bioavailable”. Further, in series [1], the pIC50 is 8.00 to 10.00. The pEC50 in series [2] was < 8.00.
On to `O=C(c1cc(Cn2c(=O)[nH]c(=O)c3ccccc32)ccc1F)N1Cc2nccnc2C1` [Example 26], for which the pIC50 in series [1] is 8.00 to 10.00. In addition, in series [2], the pEC50 is < 8.00.
On to `O=C(c1cc(Cn2c(=O)[nH]c(=O)c3ccccc32)ccc1F)N1CCN(c2ncccn2)CC1` [Example 28], for which the pIC50 in series [1] was 8.00 to 10.00. Also, the pEC50 in series [2] is 8.00 to 10.00.
Turning to `O=C(c1cc(Cn2c(=O)[nH]c(=O)c3ccccc32)ccc1F)N1CC=C(c2ccc(F)cc2)CC1` [Example 29], in series [1], the pIC50 is 8.00 to 10.00. Further, the pEC50 in series [2] was 4.00 to 6.00.
In the same order, the values of `O=C(c1ccccn1)N1CCN(C(=O)c2cc(Cn3c(=O)[nH]c(=O)c4ccccc43)ccc2F)CC1` [Example 30] are 8.00 to 10.00 and < 8.00.
For the molecule `O=C(c1cc(Cn2c(=O)[nH]c(=O)c3ccccc32)ccc1F)N1CCNCC1` [Example 30b, 1-(4-fluoro-3-(piperazine-1-carbonyl)benzyl)quinazoline-2,4(1H,3H)-dione hydrochloric acid], in series [1], the pIC50 is 8.00 to 10.00.
For the molecule `O=C(c1ccno1)N1CCN(C(=O)c2cc(Cn3c(=O)[nH]c(=O)c4ccccc43)ccc2F)CC1` [Example 31], in series [1], the pIC50 is 8.00 to 10.00. In addition, the pEC50 in series [2] is < 8.00.
The like results for `O=C(c1cnccn1)N1CCN(C(=O)c2cc(Cn3c(=O)[nH]c(=O)c4ccccc43)ccc2F)CC1` [Example 32] were, in that order, 8.00 to 10.00 and < 8.00.
The like results for `Cc1cnc(C(=O)N2CCN(C(=O)c3cc(Cn4c(=O)[nH]c(=O)c5ccccc54)ccc3F)CC2)cn1` [Example 33] were, in that order, 8.00 to 10.00 and < 8.00.
In the same order, the values of `O=C(c1cnco1)N1CCN(C(=O)c2cc(Cn3c(=O)[nH]c(=O)c4ccccc43)ccc2F)CC1` [Example 34] are 8.00 to 10.00 and < 8.00.
Regarding `Cc1cc(C(=O)N2CCN(C(=O)c3cc(Cn4c(=O)[nH]c(=O)c5ccccc54)ccc3F)CC2)no1` [Example 35], the pIC50 in series [1] is 8.00 to 10.00. In addition, the pEC50 in series [2] was < 8.00.
In the same order, the values of `Cc1cc(C(=O)N2CCN(C(=O)c3cc(Cn4c(=O)[nH]c(=O)c5ccccc54)ccc3F)CC2)on1` [Example 36] are 8.00 to 10.00 and < 8.00.
For `Cc1nc(C)c(C(=O)N2CCN(C(=O)c3cc(Cn4c(=O)[nH]c(=O)c5ccccc54)ccc3F)CC2)o1` [Example 37], the pIC50 in series [1] is 8.00 to 10.00. Moreover, in series [2], the pEC50 was < 8.00.
Consider `O=C(c1cc(Cn2c(=O)[nH]c(=O)c3ccccc32)ccc1F)N1CCN(C(=O)C2CCCO2)CC1` (stereo not shown) [Example 38], for which, in series [3], the half-life was > 2 h and the “bioavailability (in words)” value was “bioavailable”. Further, the pIC50 in series [1] is 8.00 to 10.00. Also, the pEC50 in series [2] was < 8.00.
In the case of `CC1(C(=O)N2CCN(C(=O)c3cc(Cn4c(=O)[nH]c(=O)c5ccccc54)ccc3F)CC2)CCCO1` (stereo not shown) [Example 39], the pIC50 in series [1] is 8.00 to 10.00. Besides, the pEC50 in series [2] was < 8.00.
The like results for `CCOC(=O)N1CCN(C(=O)c2cc(Cn3c(=O)[nH]c(=O)c4ccccc43)ccc2F)CC1` [Example 41] were, in that order, 8.00 to 10.00 and < 8.00.
In the same order, the values of `O=C(OC1CCCC1)N1CCN(C(=O)c2cc(Cn3c(=O)[nH]c(=O)c4ccccc43)ccc2F)CC1` [Example 42] are 8.00 to 10.00 and < 8.00.
